Measurements published in patent publication US7101677B1, “Receptor assay” (University Court of the University of Glasgow, priority 1999, dated 2006).
Where a chain is given by its changes, count along the chain named.

Columns and labels:
[1] = target: T1, CAM α1b-adrenoceptor/GFP fusion protein (Mesocricetus auratus, UniProt P18841, A293L/K290H/R288K); assay: Plate fluorimetry, CAM α1b-adrenoceptor/GFP in HEK 293 cells; type: cell-based, hamster; details: 22 hrs treatment, range in brackets, read-out: EC50 of up-regulation of fluorescence of CAM α1b-adrenoceptor/GFP
T1 construct: expressed in transfected cells
T1 sequence (P18841 1-515 R288K/K290H/A293L): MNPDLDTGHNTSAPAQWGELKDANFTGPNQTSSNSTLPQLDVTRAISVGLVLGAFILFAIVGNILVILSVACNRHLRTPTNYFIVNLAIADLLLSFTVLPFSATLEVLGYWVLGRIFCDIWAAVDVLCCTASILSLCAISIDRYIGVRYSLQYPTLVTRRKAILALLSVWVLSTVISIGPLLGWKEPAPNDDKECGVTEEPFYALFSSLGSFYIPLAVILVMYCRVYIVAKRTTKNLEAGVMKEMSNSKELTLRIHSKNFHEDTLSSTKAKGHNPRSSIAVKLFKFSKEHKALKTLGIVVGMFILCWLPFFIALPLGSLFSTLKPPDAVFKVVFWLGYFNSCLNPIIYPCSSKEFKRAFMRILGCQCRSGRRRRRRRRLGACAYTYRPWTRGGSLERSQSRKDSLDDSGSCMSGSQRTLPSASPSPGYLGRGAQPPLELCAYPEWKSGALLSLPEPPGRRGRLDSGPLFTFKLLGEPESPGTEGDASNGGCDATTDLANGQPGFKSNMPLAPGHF
Description: These cell lines were used to investigate ligand up-regulation of the CAM α1b-adrenoceptor/GFP fusion protein. Fusion protein upregulation was measured according to a gain in total cellular fluorescence in a plate based fluorimeter.
For experiments cells were seeded into black 96 well view plates (Costar) on the day before assay. […] Cells were incubated at 37° C. for 22 hours. After incubation fluorescence was detected using a Tecan Spectrafluor plus fluorimeter. To control for plate and media autofluorescence results were calculated by subtracting a blank plate reading from the fluorescence values obtained in drug treated cells.
The time course of ligand up-regulation of the CAM α1b-adrenoceptor/GFP fusion protein was also investigated. In this study cells were seeded and treated with drug as previously described but fluorescence in the blank plate and the cell plates were read at various time points between 2–31 hours after drug addition.

[2] = target: T2, 3CAM hamster α1b-adrenoceptor/GFP fusion construct (Mesocricetus auratus, UniProt P18841, A293L/K290H/R288K); assay: Confocal microscopy, 3CAM α1b-adrenoceptor-GFP; type: cell-based; details: 1 μM for 24h
T2 construct: expressed in transfected cells
T2 sequence (P18841 1-515 R288K/K290H/A293L): T1 sequence (P18841 1-515 R288K/K290H/A293L)
Description: (§1) Cells expressing either the 3CAM (10A) or wild type (10B) hamster α1b-adrenoceptor grown on glass cover slips were treated with vehicle (a), phentolamine (b), WB4101 (c) or HV723 (d) (all at 1 μM) for 24h. The cells were then visualised on a confocal microscope.
(§2) The images were manipulated with Zeiss LSM or MetaMorph software. Two different protocols for preparation of cells were used. When examining the time course of internalisation and recycling live cells were used. Cells were grown on glass coverslips and mounted on the imaging chamber. Cells were maintained in KRH buffer (see below) and temperature was maintained at 37° C. In other studies fixed cells were used. Cells on glass coverslips were washed with PBS and fixed for 20 min at room temperature using 4% paraformaldehyde in PBS/5% sucrose pH 7.2. After one wash with PBS coverslips were mounted on microscope slides with 40% glycerol in PBS.
(§3) In the first step the coding sequence of a modified form of GFP was modified by polymerase chain reaction (PCR) amplification. Using the amino-terminal primer 5′-[…]-3 the initiating Met of GFP was removed and both a Kpn I restriction site (underlined) and a 2-amino acid spacer (Gly-Asn) were introduced. Using the carboxy-terminal primer 5-[…]-3′ an Xba I restriction site (underlined) was introduced downstream of the stop codon of GFP. The amplified fragment of GFP digested with Kpn I and Xba I was subcloned into similarly digested pcDNA3 expression vector (Invitrogen). To obtain the α1B-adrenoceptor-GFP fusion proteins, the coding sequence of each form of the α1B-adrenoceptor was amplified by PCR. Using the amino-terminal primer 5′-[…]-3′, a Kpn I restriction site (underlined) was introduced upstream of the initiator Met. […] Finally, the GFP construct in pcDNA3 was digested with Kpn I and ligated together with the PCR product of the α1B-adrenoceptor amplification also digested with Kpn I. The open reading frames so produced represent the coding sequence of either the wild type or 3CAM α1B-adrenoceptor-GFPs. […]

[3] = target: T3, wild type hamster α1b-adrenoceptor/GFP fusion construct (Mesocricetus auratus, UniProt P18841); assay: Confocal microscopy, wild type α1b-adrenoceptor-GFP; type: cell-based; details: 1 μM for 24h
T3 construct: expressed in transfected cells
T3 sequence (P18841 1-515): T1 sequence (P18841 1-515 R288K/K290H/A293L) with K288R, H290K, L293A
Description: as §1, §2, §3

CAM β2-adrenoceptor-GFP = target: T4, CAM β2-adrenoceptor-GFP (Homo sapiens, UniProt P07550, H269K/K267R/L266S/L272A); assay: Confocal microscopy of CAM β2-adrenoceptor-GFP in HEK293 cells; type: cell-based; details: 24h, 10^−5 M
T4 construct: GFP (modified form, Zernicka-Goetz et al. 1997); expressed in transfected cells

3CAM α1b-adrenoceptor = target: T5, 3CAM α1b-adrenoceptor (Mesocricetus auratus, UniProt P18841, A293L/K290H/R288K); assay: [3H]prazosin specific binding to membranes after ligand treatment, 3CAM; type: cell-based, hamster; details: FIG. 10C; [3H]prazosin 2 nM
T5 construct: expressed in transfected cells
T5 sequence (P18841 1-515 R288K/K290H/A293L): T1 sequence (P18841 1-515 R288K/K290H/A293L)
Description: (§4) Equivalent studies were performed on plates of cells which were then washed and harvested. Membranes were prepared and the specific binding capacity of a single concentration (2 nM) of [^3H]prazosin was then assessed (FIG. 10C).
(§5) HEK293 cells stably expressing each of the α1B-adrenoceptor-GFP fusion proteins were grown to confluence on 6 cm dishes. Prior to harvesting, cells were washed twice with 4 ml of ice-cold TE buffer (10 mM Tris, 0.1 mM EDTA pH 7.5) and then scraped into 1 ml of the same buffer. […] The suspension was centrifuged at 16000×g for 15 min and the resulting pellets resuspended in ice-cold TE buffer to final protein concentrations of 0.035–0.16 mg/ml.

[4] = target: T6, wild-type α1b-adrenoceptor (Mesocricetus auratus, UniProt P18841); assay: [3H]prazosin specific binding to membranes after ligand treatment, wild type; type: cell-based, hamster; details: FIG. 10C; [3H]prazosin 2 nM
T6 construct: expressed in transfected cells
T6 sequence (P18841 1-515): T1 sequence (P18841 1-515 R288K/K290H/A293L) with K288R, H290K, L293A
Description: as §4, §5

[5] = target: T7, PAR1mut/GFP fusion protein (Homo sapiens, UniProt P25116, A405G/G401A/L403A/M404G/N398G/Q402G/S399A/S400G/S406A/Y397A); assay: Agonist mediated down-regulation of PAR1mut/GFP in plate fluorimeter; type: cell-based; details: 4 hours incubation
T7 construct: expressed in transfected cells
T7 sequence (P25116 22-425 Y397A/N398G/S399A/S400G/G401A/Q402G/L403A/M404G/A405G/S406A): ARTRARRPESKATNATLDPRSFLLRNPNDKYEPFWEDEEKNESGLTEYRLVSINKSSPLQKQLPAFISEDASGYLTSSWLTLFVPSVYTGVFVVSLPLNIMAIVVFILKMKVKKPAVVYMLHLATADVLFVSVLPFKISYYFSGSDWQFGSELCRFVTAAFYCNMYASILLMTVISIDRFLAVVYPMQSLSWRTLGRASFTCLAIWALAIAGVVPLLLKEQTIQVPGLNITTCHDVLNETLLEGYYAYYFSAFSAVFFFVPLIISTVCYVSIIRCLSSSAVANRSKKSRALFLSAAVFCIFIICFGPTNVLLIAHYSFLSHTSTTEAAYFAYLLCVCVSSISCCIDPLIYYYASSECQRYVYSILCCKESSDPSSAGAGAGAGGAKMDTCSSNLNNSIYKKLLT
Description: PAR1 receptor internalisation occurs through two mechanisms. […] This […] in the wild type receptor with the sequence […] (Shapiro and Coughlin, 1998). […] Cells were seeded into black 96 well view plates (Costar) the day before the experiment. The growth media was replaced with phenol red free DMEM/F12 (1:1) media containing 2 mM L-glutamine and either TRAP (10 μM-1 nM) or thrombin (1-0.0001 units/ml). The media also contained 0.5 mM Brilliant Black dye to absorb any media associated autofluorescence. […] To control for plate and media autofluorescence results were calculated by subtracting a blank plate reading from the fluorescence values obtained in drug treated cells.

Row | EC50 [1] | upregulation of fluorescence of 3CAM α1b-adrenoceptor/GFP (confocal) [2] | upregulation of wild type α1b-adrenoceptor/GFP (confocal) [3] | upregulation of fluorescence of CAM β2-adrenoceptor-GFP (confocal) (CAM β2-adrenoceptor-GFP) | Compound | further results
1 | 417 nM | Upregulation of the 3CAM | not wild type | – | CCC(C#N)(CCCNCCOc1ccccc1OC)c1cc(OC)c(OC)c(OC)c1 (stereo not drawn) [HV 723] | –
2 | 676 nM | Upregulation of the 3CAM | not wild type | – | COc1cccc(OC)c1OCCNCC1COc2ccccc2O1 (stereo not drawn) [WB 4101] | –
3 | – | – | – | Upregulation of fluoresence | CCCc1ccccc1OCC(O)CNC(C)C (stereo not drawn) [dihydroalprenolol] | –
4 | 170 nM | Upregulation of the 3CAM | not wild type | – | Cc1ccc(N(CC2=NCCN2)c2cccc(O)c2)cc1 [phentolamine] | –
5 | – | – | – | not recorded | COc1cc2nc(N3CCN(C(=O)c4ccco4)CC3)nc(N)c2cc1OC [prazosin] | effect on 3CAM α1b-adrenoceptor level ([3H]prazosin specific binding) (3CAM α1b-adrenoceptor): upregulation; effect on wild-type α1b-adrenoceptor level ([3H]prazosin specific binding) [4]: no effect
6 | – | – | – | not recorded | COC(=O)[C@@H]1[C@H]2C[C@H]3c4[nH]c5ccccc5c4CCN3C[C@@H]2CC[C@@H]1O [yohimbine] | –
7 | – | – | – | – | thrombin | maximum decrease (loss) in fluorescence of PAR1 mut/GFP construct [5]: about 5%
